Here are results for three compounds from patent US6458797B1, “Methods for remodeling neuronal and cardiovascular pathways” (Queen's University of Kingston, priority 1998, dated 2002).

Assay [1] deals with spontaneously hypertensive rats (SHR). As to the kind of experiment: Structurally-based vascular resistance in perfused vascular bed of SHR after 1 or 2 weeks of drug treatment. Particulars: for Slope Flow Pressure: control 7.13 ± 0.63; for Maximum Constriction With Cocktail “Yield”: control 381 ± 21. Type of assay: in vivo, rat. The method, then: Penile perfusion preparations were made using the procedure established by Banting, J. D., et al., “Isolation and Perfusion of the Pudendal Vasculature in Male Rats. J Urol., 2: 587-590 (1995). A heated chamber served to maintain the ambient temperature and the entire preparation at 37-38° C. The perfusate was held in a reservoir and passed through a heating and a bubble trapping/mixing chamber connected to a single peristaltic pump (Minipuls 2 Pump, Gilson, Inc., 3000 W. Beltline Highway, Middleton, Wis. USA 53562). An injection port was located distal to the pump for the introduction of pharmacological agents to minimize dead volume. Drugs were administered via a Harvard Apparatus, Inc. infusion pump (Harvard Apparatus, Inc., 84 October Hill Road, Holliston, Mass. 01746). The perfusate was a Tyrode-dextran solution consisting of a mixture of 20 mg of KCI, 32.3mg of CaCl2.H2O, 5.1 mg of MgCl2.6H2O, 6.2 mg of NaH2PO4.2H2O, 155 mg of NaHCO3, 100 mg of glucose, and 800 mg of NaCl in each 100 mL of fluid. The solution was maintained at pH 7.4, and a temperature of 37-39° C., and oxygenated with 95% O2 and 5% CO2. The rats were anaesthetized (sodium pentobarbital 60 mg/kg body weight i.p.) and heparinized (1000 IU/kg, i.v.). The bilateral isolation of penile vasculature was achieved by ligating all of the branching arteries except for the pudendal; then the abdominal aorta was cannulated proximal to the iliac bifurcation with a single lumen catheter. The catheter was connected to the perfusion apparatus via a pressure transducer for arterial pressure recording. After sectioning the vena cava and spinal cord to remove venous resistance and to eliminate neural influences, a flow of perfusate (1 mL/min per kg body weight) through the abdominal cannula was initiated. The perfusion pressure was continuously recorded on a data acquisition system (MacLab, AD Instruments, Houston, Tex.). The perfusate was infused for twenty minutes to flush the penile vasculature of blood and obtain a stable pressure before the beginning of any experiment. Following this, sodium nitroprusside (20 μg/mL) was infused to induce maximum vasodilation. The flow rate-perfusion/pressure relationship was determined by measuring the pressure at minimum vascular resistance at flow rates of 0.5, 1.0, 2.0, 4.0 mL/min per kg of body weight. A cumulative α1-adrenoreceptor concentration-response curve to methoxamine (2.5, 5, 10, 25, 50 μg/mL was then generated. Each concentration of methoxamine was infused for a duration of 10 minutes, at which time a plateau was reached. Subsequently, a continuous injection of a cocktail containing a supramaximal concentration of vasoconstrictors (vasopressin, 20.5 μg/mL, angiotensin-II, 200 ng/mL; methoxamine, 64 μg/mL; Sigma, St. Louis, Mo., 63178) was given to ensure that maximum constrictor response that was not dependent upon the activation of a single receptor type was achieved. A second injection of the constrictor cocktail was administered to ensure the tissue “yield” was maximum constriction. […] At the end of the concentration-response relationship, the aorta was cut distal to the catheter, and a baseline flow-pressure curve was recorded again. This was done to ensure that pressure fell to zero and to account for any false pressure readings that may have resulted due to movement of the catheter during the experiment.
The hindlimb perfusion preparation was adopted from a technique originally designed by Folkow et al., Acta Physiol Scand., 80: 93-106 (1973), as modified by Adams et al., Hypertension, 14: 191-202 (1989). The perfusion experiment was performed as described above. Drugs were administered into the mixing chamber via a Harvard Apparatus infusion pump. The rats were anaesthetized (Inactin, 100 mg/kg of body weight, i.p.) and heparinized (1000 IU/kg of body weight, i.v.).

Assay [2] has the same test system. As to the kind of experiment: Left ventricle weight of SHR after 1 or 2 weeks of drug treatment. Particulars: for Left Ventricle Weight (g)/Body Weight (kg) Ratio: control 2.46 ± 0.08. The class given is in vivo, rat. The method, then: Following this treatment, structurally-based resistance to blood flow in the perfused penile vascular bed and hindlimb vascular bed models were measured using the methods detailed above. […] The animal hearts were excised and weighed.

Assay [3] concerns α1-adrenoreceptor. As to the kind of experiment: Penile vascular bed perfusion, cumulative α1-adrenoreceptor concentration-response curve to methoxamine. Also noted: species or system rat. To be noted: mean ± SD; for Slope Methoxamine: steepest slope of concentration-response curve. The protocol: Male spontaneously hypertensive (SH) rats weighing between 246-313 g, and normotensive Sprague-Dawley (SD) rats weighing between 246-440 g were obtained from Charles River Laboratories (Montreal, Quebec, Canada). The animals were maintained in individual cages with a 12 hour light/12 hour dark cycle, and a room temperature of 22-24° C. They were provided with standard rodent chow and tap water ad libitum and were acclimated to the room for at least two days before the experiments. All procedures were carried out in accordance with the guidelines set out by the Canadian Council on Animal Care.
Penile perfusion preparations were made using the procedure established by Banting, J. D., et al., “Isolation and Perfusion of the Pudendal Vasculature in Male Rats. J Urol., 2: 587-590 (1995). A heated chamber served to maintain the ambient temperature and the entire preparation at 37-38° C. The perfusate was held in a reservoir and passed through a heating and a bubble trapping/mixing chamber connected to a single peristaltic pump (Minipuls 2 Pump, Gilson, Inc., 3000 W. Beltline Highway, Middleton, Wis. USA 53562). An injection port was located distal to the pump for the introduction of pharmacological agents to minimize dead volume. Drugs were administered via a Harvard Apparatus, Inc. infusion pump (Harvard Apparatus, Inc., 84 October Hill Road, Holliston, Mass. 01746). The perfusate was a Tyrode-dextran solution consisting of a mixture of 20 mg of KCI, 32.3mg of CaCl2.H2O, 5.1 mg of MgCl2.6H2O, 6.2 mg of NaH2PO4.2H2O, 155 mg of NaHCO3, 100 mg of glucose, and 800 mg of NaCl in each 100 mL of fluid. The solution was maintained at pH 7.4, and a temperature of 37-39° C., and oxygenated with 95% O2 and 5% CO2. The rats were anaesthetized (sodium pentobarbital 60 mg/kg body weight i.p.) and heparinized (1000 IU/kg, i.v.). The bilateral isolation of penile vasculature was achieved by ligating all of the branching arteries except for the pudendal; then the abdominal aorta was cannulated proximal to the iliac bifurcation with a single lumen catheter. The catheter was connected to the perfusion apparatus via a pressure transducer for arterial pressure recording. […] The perfusion pressure was continuously recorded on a data acquisition system (MacLab, AD Instruments, Houston, Tex.). […] The flow rate-perfusion/pressure relationship was determined by measuring the pressure at minimum vascular resistance at flow rates of 0.5, 1.0, 2.0, 4.0 mL/min per kg of body weight. […] At the end of the concentration-response relationship, the aorta was cut distal to the catheter, and a baseline flow-pressure curve was recorded again. […]

Assay [4] concerns α1-adrenoreceptor. As to the kind of experiment: Hindlimb vascular bed perfusion, cumulative α1-adrenoreceptor concentration-response curve to methoxamine. To be noted: mean ± SD. Also noted: species or system rat. The protocol: Male spontaneously hypertensive (SH) rats weighing between 246-313 g, and normotensive Sprague-Dawley (SD) rats weighing between 246-440 g were obtained from Charles River Laboratories (Montreal, Quebec, Canada). The animals were maintained in individual cages with a 12 hour light/12 hour dark cycle, and a room temperature of 22-24° C. They were provided with standard rodent chow and tap water ad libitum and were acclimated to the room for at least two days before the experiments. All procedures were carried out in accordance with the guidelines set out by the Canadian Council on Animal Care. The hindlimb perfusion preparation was adopted from a technique originally designed by Folkow et al., Acta Physiol Scand., 80: 93-106 (1973), as modified by Adams et al., Hypertension, 14: 191-202 (1989). The perfusion experiment was performed as described above. Drugs were administered into the mixing chamber via a Harvard Apparatus infusion pump. […] Following a midline abdominal incision, the abdominal aorta was cannulated proximal to the iliac bifurcation with a double lumen catheter (Storz, St Louis, Mo., USA), and the catheter was extended down the right common iliac artery. One lumen of the catheter was connected to the perfusion apparatus, while the other was connected to a pressure transducer for arterial pressure recording. […] A cumulative α1-adrenoreceptor concentration-response curve to methoxamine (0.5, 1, 2, 4, 8, 16, 32, 64 μg/mL) was then generated. […] Subsequently, a bolus injection of a cocktail containing a supramaximal concentration of vasoconstrictors was given as above. At the end of the concentration-response relationship, the iliac artery was cut distal to the catheter, and the flow pressure curve was monitored again. Flow rates for the hindlimb perfusion experiments were determined based on expected flow rates of exercising skeletal muscle at maximum dilation. […] All values in the figures and tables were expressed as mean ± standard deviation. Results comparing penile and hindlimb vasculature were analyzed using the Student's t-test. […]

Where [5] appears, read: SHR, enalapril 30 mg/kg per day, 2-week period of treatment, versus control.
Where [6] appears, read: SHR-E1: enalapril 30 mg/kg per day, 1 week, n = 5.
[7] abbreviates: SHR-E2: enalapril 30 mg/kg per day, 2 weeks, n = 7.
The mark [8] stands for this setting: SHR-H: hydralazine 45 mg/kg per day, n = 7.

Structures are written as SMILES.

As for `CCOC(=O)[C@H](CCc1ccccc1)N[C@@H](C)C(=O)N1CCC[C@H]1C(=O)O` [enalapril], the “decrease of “yield” value” in assay [1] (setting [5]) is 12.1%±6.0%. In addition, the entries for the “Slope Flow Pressure” value in assay [1] (setting [6]) and in assay [1] (setting [7]) were 6.10 ± 1.5 and 6.45 ± 1.31, respectively. Further, the “Maximum Constriction With Cocktail “Yield”” value in assay [1] (setting [6]) is 358 ± 20 mm Hg; in assay [1] (SHR-E2: enalapril 30 mg/kg per day, 2 weeks, n = 7, vasopressin, angiotensin-II, methoxamine cocktail) it was 335 ± 23 mm Hg. Besides, in assay [2] (setting [5]), the “decrease of left ventricular mass” value was 13.6%±3.2%. The “Left Ventricle Weight (g)/Body Weight (kg) Ratio” value turned out to be 2.17 ± 0.05 g/kg in assay [2] (setting [6]) and 2.13 ± 0.08 g/kg in assay [2] (setting [7]).

`NNc1nncc2ccccc12` [hydralazine]: the “decrease of “yield” point” value in assay [1] (SHR, hydralazine 45 mg/kg per day, versus control) is recorded as 7.3%±2.9%. Moreover, in assay [1] (setting [8]), the “Slope Flow Pressure” value turned out to be 6.63 ± 0.86 and the “Maximum Constriction With Cocktail “Yield”” value is reported as 353 ± 11 mm Hg. In assay [2] (SHR, hydralazine 45 mg/kg per day, versus control, no significant effect), the “decrease of left ventricular weight” value is 3.7%±5.0%. Also, the “Left Ventricle Weight (g)/Body Weight (kg) Ratio” value in assay [2] (setting [8]) is recorded as 2.37 ± 0.12 g/kg.

Regarding `COc1ccc(OC)c(C(O)C(C)N)c1` (centres unmarked) [methoxamine], the “Maximum Constriction With Methoxamine” value was 171 ± 36 mm Hg in the assay on α1-adrenoreceptor [3] (SD (normotensive Sprague-Dawley), methoxamine 50 μg/mL); 172±32 mm Hg in the assay with α1-adrenoreceptor [3] (SHR, perfusion pressure at supramaximal methoxamine 50 μg/mL); 191 ± 55 mm Hg in the assay with α1-adrenoreceptor [4] (SD, methoxamine 64 μg/mL); 253±25 mm Hg in the assay with α1-adrenoreceptor [4] (SHR, perfusion pressure at supramaximal methoxamine 64 μg/mL). In addition, the “Slope Methoxamine” value is 2.03±0.68 in the assay on α1-adrenoreceptor [3] (SD); 1.64±0.21 in the assay on α1-adrenoreceptor [3] (SHR); 3.0±0.99 with α1-adrenoreceptor [4] (SD, steepest slope of concentration-response curve).
